Assays:
rats [1] = details: Granados-Soto et al. Pain 2005; cited from earlier work
rats [2] = assay: fear potentiated startle (FPS) test in rats; assay type: in vivo, rat
Method: Twenty-four rats received a 30 min period of habituation to the FPS apparatus. Twenty-four hours later, baseline startle amplitudes were collected. The rats were then divided into three matched groups based on baseline startle amplitudes. […] Groups 1 and 2 therefore consisted of 8 rats each, with Group 3 consisting of […]. Following baseline startle amplitude collection, 20 light/shock pairings were delivered on two sessions over two consecutive days (i.e., 10 light/shock pairings per day). […] Immediately following injections, startle amplitudes were assessed during startle alone trials and startle plus fear (light followed by startle) trials. Fear potentiated startle (light+startle amplitudes minus startle alone amplitudes) was compared between the treatment groups.
Animals were trained and tested in four identical stabilimeter devices (Med-Associates). Briefly, each rat was placed in a small Plexiglas cylinder. The floor of each stabilimeter consisted of four 6-mm-diameter stainless steel bars spaced 18 mm apart through which shock can be delivered. Cylinder movements result in displacement of an accelerometer where the resultant voltage is proportional to the velocity of the cage displacement. Startle amplitude is defined as the maximum accelerometer voltage that occurs during the first 0.25 sec after the startle stimulus is delivered. […] Each stabilimeter was enclosed in a ventilated, light-, and sound-attenuating box. All sound level measurements were made with a Precision Sound Level Meter. The noise of a ventilating fan attached to a sidewall of each wooden box produced an overall background noise level of 64 dB. The startle stimulus was a 50 ms burst of white noise (5 ms rise-decay time) generated by a white noise generator. The visual conditioned stimulus employed was illumination of a light bulb adjacent to the white noise source. The unconditioned stimulus was a 0.6 mA foot shock with duration of 0.5 sec, generated by four constant-current shockers located outside the chamber. The presentation and sequencing of all stimuli were under the control of the microcomputer.
FPS procedures consisted of 5 days of testing; during days 1 and 2 baseline startle responses were collected, days 3 and 4 light/shock pairings were delivered, day 5 testing for fear potentiated startle was conducted.
Matching: On the first two days all rats were placed in the Plexiglas cylinders and 3 min later presented with 30 startle stimuli at a 30 sec interstimulus interval.
Training: On the following 2 days, rats were placed in the Plexiglas cylinders. […] The shock was delivered during the last 0.5 sec of the 3.7 sec CSs at an average intertrial interval of 4 min (range, 3-5 min).
These initial startle stimuli were used to again habituate the rats to the acoustic startle stimuli. Thirty seconds after the last of these stimuli, each animal received 60 startle stimuli with half of the stimuli presented alone (startle alone trials) and the other half presented 3.2 sec after the onset of the 3.7 sec CS (CS-startle trials). All startle stimuli are presented at a mean 30 sec interstimulus interval, randomly varying between 20 and 40 sec.
Measures: The treatment groups were compared on the difference in startle amplitude between CS-startle and startle-alone trials (fear potentiation).
The therapeutic efficacy of several bumetanide analogs in alleviating anxiety was examined using the fear potentiated startle (FPS) test in rats as described above.

[3] = tested on: hippocampal slices, areas CA1 and CA3
Method: Hippocampal slices were prepared from Sprague-Dawley adult rats as described previously. Transverse hippocampal slices 100 μm thick were cut with a vibrating cutter. Slices typically contained the entire hippocampus and subiculum. After cutting, slices were stored in an oxygenated holding chamber at room temperature for at least one hour before recording.
Sharp-electrodes for intracellular recordings from CA1 and CA3 pyramidal cells were filled with 4 M potassium acetate. Field recordings from the CA1 and CA3 cell body layers were acquired with low-resistance glass electrodes filled with 2 M NaCl. For stimulation of the Schaffer collateral or hilar pathways, a small monopolar tungsten electrode was placed on the surface of the slice. Spontaneous and stimulation-evoked activities from field and intracellular recordings were digitized (Neurocorder, Neurodata Instruments, New York, N.Y.) and stored on videotape. AxoScope software (Axon Instruments) on a personal computer was used for off-line analysis of data.
In some experiments, normal or low-chloride medium was used containing bicuculline.
After placement in the interface chamber, slices were superfused at approximately 1 ml/min. At this flow-rate, it took 8-10 minutes for changes in the perfusion media to be completed. All of the times reported here have taken this delay into account and have an error of approximately ±2 minutes.
Single electrical stimuli were delivered to the Schaffer collaterals, midway between areas CA1 and CA3, every 30 seconds so that the field responses in areas CA1 and CA3 could be monitored throughout the duration of each experiment.

human patients = details: Haglund and Hochman, J. Neurophysiol. 2005; cited from earlier work
hippocampal slices = details: Pearce, Neuron 10:189, 1993; cited from earlier work
synchronized discharges = details: Hochman et al. Science 270:99-102, 1995; cited from earlier work
rat hippocampal slices = assay: spontaneous epileptiform burst discharges across a spectrum of in vitro models in hippocampal slices (Example 69); assay type: cell-based; details: for spontaneous burst discharges, CA3 and CA1: high-K+ (10 mM) medium
Method: Sprague-Dawley rats (males and females; 25-35 days old) were decapitated, the top of the skull was rapidly removed, and the brain chilled with ice-cold oxygenated slicing medium. […] A hemisphere of brain containing hippocampus was blocked and glued (cyanoacrylic adhesive) to the stage of a Vibroslicer (Frederick Haer, Brunsick, Me.). […] In the recording chamber, the slices were perfused with oxygenated recording medium at 34-35° C. All animal procedures were conducted in accordance with NIH and University of Washington animal care guidelines.
In most slice experiments, simultaneous extracellular field electrode recordings were obtained from CA1 and CA3 areas. A bipolar tungsten stimulating electrode was placed on the Schaffer collaterals to evoke synaptically-driven field responses in CA1. Stimuli consisted of 100-300 μsec duration pulses at an intensity of four times the population-spike threshold. After discharges were evoked by a 2 second train of such stimuli delivered at 60 Hz.

NS(=O)(=O)c1cc(C(=O)O)c(NCc2ccco2)cc1Cl [furosemide]
formalin-induced nociception (rats [1]): reduced | difference score one week after treatment (rats [2]; compared with vehicle alone, FIG. 10): higher difference score | statistical difference from vehicle in difference score one week after treatment (rats [2]; error bars large for vehicle-treated animals): possibly a small difference | difference score (startle alone - fear potentiated startle) on the test day (rats [2]; i.v. in DMSO, furosemide 100 mg/kg, bumetanide 70 mg/kg, compared with vehicle alone, FIG. 8): statistically significantly lower difference score | order of cessation of spontaneous bursting in CA1 and CA3 ([3]; 2.5 mM furosemide): ceased in area CA1 before the bursting ceased in area CA3 | time CA3 continued to discharge after CA1 became silent ([3]; 2.5 mM furosemide or low-chloride medium): 5 to 10 min | field responses to stimulation of the Schaffer collaterals ([3]; throughout all stages of the experiments): evoked hyperexcited field responses in both the CA1 and CA3 cell body layers | epileptic activity and normal brain activity in humans (human patients): able to block epileptic activity in humans while not affecting normal brain activity | latency of block of a component of the inhibitory currents (hippocampal slices): < 15 min | synchronized discharges and hyperexcited synaptic responses (synchronized discharges): reversibly blocked synchronized discharges without reducing hyperexcited synaptic responses | latency of block of bursting (rat hippocampal slices; 0-Ca++ experiments, 5 mM furosemide): 15 to 20 min | spontaneous burst discharges (rat hippocampal slices; 200-300 μM 4-aminopyridine): blocked | anticonvulsant resistant bursts, entorhinal cortex (rat hippocampal slices; 3 hours of perfusion with 0-Mg++ medium, one hour after addition of furosemide): blocked | spontaneous bursting activity in both CA1 and CA3 (rat hippocampal slices; all experiments): reversibly blocked | latency of block of bursting (rat hippocampal slices; all other protocols, 2.5 mM furosemide): 20 to 60 min | spontaneous burst discharges (rat hippocampal slices; bicuculline at 50-100 μM): blocked | spontaneous burst discharges, CA3 and CA1 (rat hippocampal slices; 2.5 mM furosemide, after 15 minutes of perfusion): increased in magnitude | spontaneous burst discharges, CA3 and CA1 (rat hippocampal slices; 2.5 mM furosemide, after 45 minutes of perfusion): blocked in a reversible manner | spontaneous burst discharges (rat hippocampal slices; removal of calcium plus extracellular chelation (0-Ca++)): blocked | spontaneous burst discharges (rat hippocampal slices; removal of magnesium (0-Mg++), 1 hours perfusion): blocked
